The results in this text go back to patent US20260297070A1, “CYCLIC [COMPOUND LEFT OUT] WRN INHIBITORS” (Nimbus Wadjet, Inc., priority 2023, published 2026).

In this assay the target is T1, human Werner helicase (WRN-BV08, Uniprot Q14191, amino acids 517-1235 with L1074F point mutation) (Homo sapiens, UniProt Q14191, L1074F).
T1 construct: Uniprot Q14191, amino acids 517-1235 with L1074F point mutation; TEV-cleavable 8×His (C, cleaved yes); made in house; host or cells: Sf9 insect cells (baculovirus)
T1 sequence (Q14191 with tags, fused parts or gaps L1074F limits assumed): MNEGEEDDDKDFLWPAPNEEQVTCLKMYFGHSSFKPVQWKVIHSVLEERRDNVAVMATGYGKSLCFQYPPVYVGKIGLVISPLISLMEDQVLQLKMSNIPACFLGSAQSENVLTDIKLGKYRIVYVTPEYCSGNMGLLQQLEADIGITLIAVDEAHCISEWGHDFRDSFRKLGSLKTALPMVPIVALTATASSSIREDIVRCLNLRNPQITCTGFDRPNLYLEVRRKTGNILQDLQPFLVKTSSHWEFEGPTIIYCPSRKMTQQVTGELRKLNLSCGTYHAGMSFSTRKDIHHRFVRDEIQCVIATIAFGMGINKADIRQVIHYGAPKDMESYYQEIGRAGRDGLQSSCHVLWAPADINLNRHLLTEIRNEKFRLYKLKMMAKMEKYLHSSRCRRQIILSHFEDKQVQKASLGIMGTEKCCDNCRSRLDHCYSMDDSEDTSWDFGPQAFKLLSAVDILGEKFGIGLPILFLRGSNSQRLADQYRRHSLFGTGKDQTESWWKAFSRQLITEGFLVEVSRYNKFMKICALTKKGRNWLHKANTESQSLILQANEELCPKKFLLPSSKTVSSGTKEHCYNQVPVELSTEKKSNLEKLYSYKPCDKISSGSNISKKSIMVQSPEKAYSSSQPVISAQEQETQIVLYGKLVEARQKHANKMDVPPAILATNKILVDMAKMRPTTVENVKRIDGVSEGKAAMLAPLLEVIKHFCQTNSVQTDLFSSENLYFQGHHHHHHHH
The assay can be described thus: WRN (BV08) ADP-Glo Assay. The class given is biochemical. Particulars: 0.15 nM WRN, 5 μM ATP, 0.1 nM DNA duplex, 15 min preincubation, 60 min at 25° C., pH 7.5, 1% DMSO; read-out: ADP-Glo_hWRN_IC50. In a few lines:
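ADP-Glo luminescence read-out of ATP hydrolysis. Conditions: 0.15 nM WRN, 5 μM ATP, 0.1 nM DNA duplex, 1% DMSO, 60 min at 25 °C after 15 min compound preincubation. Max/min controls were DMSO and 20 μM NSC-617145; IC50 from four-parameter fit.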
Background: ADP-Glo first removes unused ATP, then detects ADP through luciferase.
Consider `COc1cc(C(C)N(C(=O)Cn2cc(-c3cc(F)c(F)c(F)c3)cn2)C2C=CS(=O)(=O)C2)ccn1` (single isomer, unassigned) [I-831, N-[(3R**)-1,1-dioxo-2,3-dihydro-1lambda6-thiophen-3-yl]-N-[(1R*)-1-(2-methoxypyridin-4-yl)ethyl]-2-[4-(3,4,5-trifluorophenyl)-1H-pyrazol-1-yl]acetamide], for which the IC50 was in the range of 0.5 to 5 µM. With `COc1cc(CN(C(=O)C(OCCS(C)(=O)=O)c2ccc(-c3ccc(F)c(F)c3)cc2F)[C@@H]2C=CS(=O)(=O)C2)ccn1` (stereo partly drawn) [I-707, N-[(3R)-1,1-dioxo-2,3-dihydro-1lambda6-thiophen-3-yl]-2-(2-methanesulfonylethoxy)-N-[(2-methoxypyridin-4-yl)methyl]-2-{3,3′,4′-trifluoro-[1,1′-biphenyl]-4-yl}acetamide], the IC50 lay in the range of 0.5 to 5 µM. The same measure for `COc1cc(CN(C(=O)Cc2ccc(-c3ccc(F)cc3O)nc2)C2C=CS(=O)(=O)C2)ccn1` (single isomer, unassigned) [I-353]: 10 to 50 µM. As for `COc1cc(CN(C(=O)C(OCC#N)c2ccc(-c3ccc(F)c(F)c3)cc2F)[C@@H]2C=CS(=O)(=O)C2)ccn1` (single isomer, unassigned) [I-692, (2R*)-2-(cyanomethoxy)-N-[(3R)-1,1-dioxo-2,3-dihydro-1lambda6-thiophen-3-yl]-N-[(2-methoxypyridin-4-yl)methyl]-2-{3,3′,4′-trifluoro-[1,1′-biphenyl]-4-y]}acetamide], the IC50 was 10 to 50 µM. As to `CC(=O)N1CCN(C(=O)C(C(=O)N(Cc2ccncc2)C2C=CS(=O)(=O)C2)c2ccc(-c3ccc(F)cc3)cc2)CC1` (stereo not shown) [I-667, 3-(4-acetylpiperazin-1-yl)-N-(1,1-dioxo-2,3-dihydro-1lambda6-thiophen-3-yl)-2-{4′-fluoro-[1,1′-biphenyl]-4-yl}-3-oxo-N-[(pyridin-4-yl)methyl]propanamide], the IC50 lay within 0.5 to 5 µM. For `CC(C)(O)c1cc(CN(C(=O)Cn2cc(-c3ccc(C(F)(F)F)cc3)cn2)C2C=CS(=O)(=O)C2)ccn1` (single isomer, unassigned) [I-638], the IC50 is less than 0.5 µM.

With `O=C(CCCC[C@@H]1SC[C@@H]2NC(=O)N[C@@H]21)NCCOCCOCCOCCOCCC(=O)Nc1ccc(Cn2cc(CCCC(=O)N3CCN(C(=O)c4ccc(CN(C(=O)Cc5ccc(-n6cccc6)cc5F)C5C=CS(=O)(=O)C5)cc4)CC3)nn2)nc1` (stereo partly drawn) [II-3, 1-{5-[(3aS,4S,6aR)-2-oxo-hexahydro-1H-thieno[3,4-d]imidazol-4-yl]pentanamido}-N-{6-[(4-{4-[4-(4-{[N-(1,1-dioxo-2,3-dihydro-1lambda6-thiophen-3-yl)-2-[2-fluoro-4-(1H-pyrrol-1-yl)phenyl]acetamido]methyl}benzoyl)piperazin-1-yl]-4-oxobutyl}-1H-1,2,3-triazol-1-yl)methyl]pyridin-3-yl}-3,6,9,12-tetraoxapentadecan-15-amide], the IC50 was in the range of 10 to 50 µM. As for `O=C(Cc1ccc(-n2cccc2)cc1)N(C1C=CS(=O)(=O)C1)C1CCC1` (stereo not shown) [I-533, N-cyclobutyl-N-(1,1-dioxo-2,3-dihydro-1lambda6-thiophen-3-yl)-2-[4-(1H-pyrrol-1-yl)phenyl]acetamide], the IC50 is more than 50 µM. The same measure for `O=C(Cc1ccc(-n2cccc2)cc1)N(Cc1ccnc2[nH]cnc12)C1C=CS(=O)(=O)C1` (stereo not shown) [I-472, N-(1,1-dioxo-2,3-dihydro-1lambda6-thiophen-3-yl)-N-({3H-imidazo[4,5-b]pyridin-7-yl}methyl)-2-[4-(1H-pyrrol-1-yl)phenyl]acetamide]: more than 50 µM; for `COc1cc(CN(C(=O)C(OCC2COC2)c2ccc(-c3ccc(F)c(F)c3)cc2F)[C@@H]2C=CS(=O)(=O)C2)ccn1` (stereo partly drawn) [I-807, N-[(3R)-1,1-dioxo-2,3-dihydro-1lambda6-thiophen-3-yl]-N-[(2-methoxypyridin-4-yl)methyl]-2-[(oxetan-3-yl)methoxy]-2-{3,3′,4′-trifluoro-[1,1′-biphenyl]-4-yl}acetamide]: 5 to 10 µM.
